Assays:
[1] = tested on: Thraustochytrium sp. ONC-T18; assay: Effects of antibiotics on the growth of ONC-T18 on ONC-T18-GM0 agar plates; format: cell-based
Protocol: Thraustochytrium sp. ONC-T18 was grown on agar plates (20 g agar per liter ONC-T18-GM0). One loop of inoculum of ONC-T18 was inoculated into 50 mL of liquid ONC-T18-GM0, and the culture was incubated in a shaker incubator at 25° C. at 250 rpm for 36 hours. Half a milliliter of the culture was transferred into a 1.5 mL tube and vortexed at full speed for 30 seconds to break down cell clusters, then diluted in 50 mL sterilized water. One hundred microliters of the resulting solution was spread onto each ONC-T18-GM0 medium plate. Each plate contained one of various antibiotics at one of various concentrations. Plates were incubated at 25° C. and emergence and development of colonies were observed daily.

[2] = tested on: Thraustochytrium sp. ONC-T18; assay: Effects of zeocin and salinity on colony numbers and colony diameters of ONC-T18; format: cell-based; conditions: for colony numbers: 10 days; for colony numbers / colony growth rates (diameter in mm): mean of two plates
Protocol: One hundred μL of ONC-T18 cell suspension diluted at 1:500 from a 2-day culture were spread onto ONC-T18-GM0 plates containing various concentrations of antibiotic zeocin and sea salt. Inoculated plates were incubated in a 25° C. incubator for 10 days. The numbers of the colonies on each plate were counted. […] In plates containing 8.5 g/L sea salt without zeocin, only one colony was observed. In plates containing 18 g/L sea salt without zeocin, colony numbers were similar to that of plates containing 35 g/L sea salt without zeocin. […] Therefore, for this work, 18 g/L sea salt was used to make ONC-T18-GM0 for selection of ONC-T18 transformants transformed with constructs bearing a zeocin-resistant gene expression cassette.

[3] = tested on: wild type strain of ONC-T18; assay: Zeocin as mutagenic agent on ONC-T18 agar plates; format: cell-based, Thraustochytrium sp. ONC-T18
Protocol: The marine protist wild type strain of ONC-T18 was chosen as a model system to test if zeocin would be effective to induce mutagenesis in this strain. One full loop of the inocula of ONC-T18, growing in the agar plates containing ONC-T18-GM0 medium [5 g/L yeast extract, 5 g/L peptone, 10 g/L D(+)-glucose. 35 g/L artificial sea salt, 1.25 mg/L trace elements (5 g/L NaH2PO4.H2O, 3.15 g/L FeCl3.6H2O, 4.36 g/L Na2EDTA.2H2O, 0.6125 mg/L CuSO4.5H2O, 0.0597 g/L Na2MoO4.2H2O, 0.022 g/L ZnSO4.7H2O, 0.01 g/L CoCl2.6H2O, 0.18 g/L MnCl2.4H2O, 13 μg/L […], 2.7 mg/L NiSO4.6H2O, 1.84 mg/L Na3VO4 and 1.94 mg/L […]). 1.25 mg/L vitamins (1 mg/L vitamin B12, 1 mg/L biotin, 0.20 g/L thiamine HCl) and 20 g agar per liter], was inoculated into 50 mL liquid ONC-T18-GM0 medium, and incubated in a shaker incubator at 25° C. at 250 rpm for 36 hours. Half a milliliter of culture was transferred into a 1.5 mL tube and vortexed at full speed for 30 seconds, and then diluted in 50 mL sterilized water. One hundred microliters of the diluted inocula were respectively spread on the agar plates containing zeocin at various concentrations (0, 10, 30, 50, and 100 μg/mL). Plates were incubated at 25° C. incubator. The emergence and development of the colonies were observed daily. […] Under these conditions, zeocin was effective within the range of at least 10-200 μg/mL; higher concentrations may well also be effective. For example, concentrations in the range of 200-500 μg/mL or higher could work. […] Under the particular conditions utilized in the present Example, zeocin worked best at 50 μg/mL.

[4] = tested on: parental strain (the wild type strain) ONC-T18; assay: Zeocin sensitivity of the parental (wild type) strain, spotted colonies; format: cell-based, Thraustochytrium sp. ONC-T18; conditions: ONC-T18-GM0 agar plates, 18 g/L sea salt, spotted cells
Protocol: (§1) A very small amount of inoculum of zeocin-resistant strains that had been transferred three times via colony passages on zeocin/ONC-T18-GM0 agar plates (as well as their parental strain or the wild type strain) was picked from colonies using a 10 μL pipette tip and re-suspended in 50 μL sterilized water in a 200 μL PCR tube. One μL of the cell suspension was spotted on ONC-T18-GM0 agar plates containing 18 g/L sea salt (15 g/L agar) and zeocin at a concentration ranging from 0 to 5000 μg/mL (Invitrogen, CA, USA). The diameters of the spotted colonies were measured on day 1, day 3, day 5, day 7, and day 8.

[5] = tested on: transformed strains bearing the zeocin-resistance gene (from S. hidustanus) expression cassette; assay: Zeocin sensitivity of transformed strains, spotted colonies; format: cell-based, Thraustochytrium sp. ONC-T18; conditions: 18 g/L sea salt
Protocol: as §1

[6] = tested on: wild type strains ONC-T18; assay: Transgene stability assay, growth on zeocin plates after six colony passages; format: cell-based, Thraustochytrium sp. ONC-T18; conditions: zeocin 200 μg/mL media
Excerpt: Transgene stability is important for certain applications of genetic engineering in industrial microbial strain improvement programs where microorganisms are used in pharmaceutical or industrial processes, and where product quantity and quality are paramount. We therefore carried out transgene stability estimate assays of transformed ONC-T18 strains. As for the growth rate assays described in above, inocula of four strains of each transformation as well as their ancestor wild type strains were spotted on ONC-T18-GM0 agar plates in the absence of zeocin and incubated at 25° C. for seven days. (Each transformation had been performed using one of the five different plasmid constructs, each of which bears various zeocin-resistant gene expression cassettes driven by a combination of different promoters and terminators). Then, using the same method, strains were transferred on a new fresh ONC-T18-GM0 agar plate and incubated at 25° C. for 7 days; colony passages were carried out 6 times. Finally, strains were transferred back onto ONC-T18-GM0 agar plates either without or with zeocin at a concentration of 200 μg/mL media.

[7] = cited from earlier work
[8] = agar plates, ONC-T18-GM0, 35 g/L artificial sea salt

Cc1c(N)nc([C@H](CC(N)=O)NC[C@H](N)C(N)=O)nc1C(=O)N[C@H](C(=O)N[C@H](C)[C@@H](O)[C@H](C)C(=O)N[C@H](C(=O)NCCC1=N[C@@H](c2nc(C(=O)NCCCCN=C(N)N)cs2)CS1)[C@@H](C)O)[C@@H](O[C@@H]1O[C@@H](CO)[C@@H](O)[C@H](O)[C@@H]1O[C@H]1O[C@H](CO)[C@@H](O)[C@H](OC(N)=O)[C@@H]1O)c1cnc[nH]1 [Zeocin, zeocin]
effect on growth of ONC-T18 (in words) [1]: significantly inhibited the growth | zeocin concentration that completely inhibited growth of ONC-T18 ([2]; ONC-T18-GM0 agar plates containing 18 g/L sea salt): 30 µg/mL | zeocin concentration needed for complete inhibition of ONC-T18 ([2]; ONC-T18-GM0 agar plates containing 35 g/L sea salt): 100 µg/mL | colony numbers ([2]; salt 5 g/L, zeocin 10 μg/mL): 0 | colony growth rates (diameter in mm) ([2]; salt 5 g/L, zeocin 10 μg/mL): 0 mm | colony numbers ([2]; salt 5 g/L, zeocin 30 μg/mL): 0 | colony growth rates (diameter in mm) ([2]; salt 5 g/L, zeocin 30 μg/mL): 0 mm | colony numbers ([2]; salt 5 g/L, zeocin 50 μg/mL): 0 | colony growth rates (diameter in mm) ([2]; salt 5 g/L, zeocin 50 μg/mL): 0 mm | colony numbers ([2]; salt 5 g/L, zeocin 100 μg/mL): 0 | colony growth rates (diameter in mm) ([2]; salt 5 g/L, zeocin 100 μg/mL): 0 mm | colony numbers ([2]; salt 8.5 g/L, zeocin 10 μg/mL): 0 | colony growth rates (diameter in mm) ([2]; salt 8.5 g/L, zeocin 10 μg/mL): 0 mm | colony numbers ([2]; salt 8.5 g/L, zeocin 30 μg/mL): 0 | colony growth rates (diameter in mm) ([2]; salt 8.5 g/L, zeocin 30 μg/mL): 0 mm | colony numbers ([2]; salt 8.5 g/L, zeocin 50 μg/mL): 0 | colony growth rates (diameter in mm) ([2]; salt 8.5 g/L, zeocin 50 μg/mL): 0 mm | colony numbers ([2]; salt 8.5 g/L, zeocin 100 μg/mL): 0 | colony growth rates (diameter in mm) ([2]; salt 8.5 g/L, zeocin 100 μg/mL): 0 mm | colony numbers ([2]; salt 18 g/L, zeocin 10 μg/mL): 11 | colony growth rates (diameter in mm) ([2]; salt 18 g/L, zeocin 10 μg/mL): 4.1 mm | colony numbers ([2]; salt 18 g/L, zeocin 30 μg/mL): 0 | colony growth rates (diameter in mm) ([2]; salt 18 g/L, zeocin 30 μg/mL): 0 mm | colony numbers ([2]; salt 18 g/L, zeocin 50 μg/mL): 0 | colony growth rates (diameter in mm) ([2]; salt 18 g/L, zeocin 50 μg/mL): 0 mm | colony numbers ([2]; salt 18 g/L, zeocin 100 μg/mL): 0 | colony growth rates (diameter in mm) ([2]; salt 18 g/L, zeocin 100 μg/mL): 0 mm | colony numbers ([2]; salt 35 g/L, zeocin 10 μg/mL): 22.5 | colony growth rates (diameter in mm) ([2]; salt 35 g/L, zeocin 10 μg/mL): 4.1 mm | colony numbers ([2]; salt 35 g/L, zeocin 30 μg/mL): 11 | colony growth rates (diameter in mm) ([2]; salt 35 g/L, zeocin 30 μg/mL): 1.9 mm | colony numbers ([2]; salt 35 g/L, zeocin 50 μg/mL): 5 | colony growth rates (diameter in mm) ([2]; salt 35 g/L, zeocin 50 μg/mL): 0.6 mm | colony numbers ([2]; salt 35 g/L, zeocin 100 μg/mL): 0 | colony growth rates (diameter in mm) ([2]; salt 35 g/L, zeocin 100 μg/mL): 0 mm | concentration at which zeocin worked best as mutagen [3, 8]: 50 µg/mL | concentration range in which zeocin was effective as mutagen [3, 8]: 10 to 200 µg/mL | colonies seen per plate ([3]; zeocin 50 μg/mL, six days post inoculation): Only a few of colonies | sensitivity of ONC-T18 cells to zeocin ([3]; zeocin 100 μg/mL): highly sensitive | zeocin concentration on which the wild type strain grew [4]: ≤ 30 µg/mL | growth of transformed strains ([5]; zeocin 5000 μg/mL): most strains grew remarkably slower | growth of transformed strains ([5]; zeocin 30 to 1000 μg/mL): grew well | growth of wild type strains [6]: none of the wild type strains were able to grow | stability at high salt concentrations ([7]; Invitrogen): unstable | water solubility ([7]; InvivoGen): water soluble

Reference: patent US9873880B2, “Engineering microorganisms” (DSM NUTRITIONAL PRODUCTS AG, priority 2013, dated 2018)
